PubChem BioAssay AID1794816

Molecular target: Solute carrier family 22 member 4 (Homo sapiens) (UniProt Q9H015)
Test: OCTN1 transporter activation by substrate – membrane potential dye, HEK-293 overexpressing cells, dose response (AID 1794816)
Conditions: HEK-293 SLC22A4 OE, FLIPR membrane potential dye

Sequence of Solute carrier family 22 member 4 (Homo sapiens) (Q9H015 whole entry, looked up): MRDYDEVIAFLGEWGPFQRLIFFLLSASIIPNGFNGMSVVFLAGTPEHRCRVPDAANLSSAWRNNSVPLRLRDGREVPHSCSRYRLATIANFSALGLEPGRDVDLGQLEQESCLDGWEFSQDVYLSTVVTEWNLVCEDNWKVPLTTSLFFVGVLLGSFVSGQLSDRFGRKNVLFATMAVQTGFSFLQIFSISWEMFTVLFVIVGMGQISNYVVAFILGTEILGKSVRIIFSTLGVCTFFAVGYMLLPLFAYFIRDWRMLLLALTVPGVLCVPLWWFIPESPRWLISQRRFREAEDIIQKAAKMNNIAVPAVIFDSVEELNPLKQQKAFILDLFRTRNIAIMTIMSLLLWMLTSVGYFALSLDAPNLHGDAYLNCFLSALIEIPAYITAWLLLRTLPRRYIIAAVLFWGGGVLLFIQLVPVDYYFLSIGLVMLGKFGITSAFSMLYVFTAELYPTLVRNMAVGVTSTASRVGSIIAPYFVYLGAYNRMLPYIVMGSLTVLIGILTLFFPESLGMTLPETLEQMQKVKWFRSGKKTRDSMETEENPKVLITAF

An EC50 of 40 µM was found for C[N+](C)(C)[C@@H](Cc1c[nH]c(=S)[nH]1)C(=O)[O-] in this work.
